Measurements published in patent publication US9409905B2, “Antibacterial compounds and methods for use” (PTC THERAPEUTICS, INC., priority 2011, dated 2016).
Converted amounts (≈) assume the structure as drawn.

Assays:
[1] = tested on: Haemophilus influenzae (H. influenzae) 49247; assay: Antibacterial activity, MIC (Table 6); type: cell-based
Text: (§1) The antibacterial activity from a microbroth dilution method may be presented as the minimum inhibitory concentration (MIC in μg/mL). The MIC value is the lowest concentration of drug which prevents macroscopically visible growth under test conditions.
(§2) Antibacterial activity of test compounds against the Gram-negative bacteria Haemophilus influenzae (H. influenzae) 49247 is shown in Table 6, Moraxella catarrhalis (M. catarrhalis) 25238 is shown in Table 7 and Neisseria meningitidis (N. meningitidis) 13090 is shown in Table 8.

[2] = tested on: E. coli LZ3111; assay: Antibacterial activity, MIC, quinolone resistant strain (Table 2); type: cell-based; conditions: Escherichia coli, LZ3111, read-out: MIC LZ3111
Method in brief: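 Microbroth dilution method; MIC (μg/mL) is the lowest drug concentration preventing macroscopically visible growth under test conditions.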

[3] = tested on: Staphylococcus aureus (S. aureus) 29213; assay: Antibacterial activity, microbroth dilution MIC (Table 1); type: cell-based; conditions: microbroth dilution, Gram-positive S. aureus 29213, read-out: MIC, 29213
Method in brief: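 Read-out: visual absence of growth. The lowest concentration meeting this gives the MIC, expressed in μg/mL, with microbroth dilution as the method.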

[4] = tested on: Escherichia coli (E. coli) BAS849; assay: as above; type: cell-based; conditions: microbroth dilution, super sensitive Gram-negative E. coli BAS849, read-out: MIC, BAS849
Method in brief: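 Broth microdilution against S. aureus 29213, E. coli 25922 and hypersensitive E. coli BAS849. MIC in μg/mL is the lowest drug concentration preventing macroscopically visible growth under test conditions.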

[5] = tested on: Neisseria meningitidis (N. meningitidis) 13090; assay: Antibacterial activity, MIC (Table 8); type: cell-based
Text: as §1, §2

[6] = tested on: E. coli ELZ4251; assay: Antibacterial activity, MIC, multi-drug resistant clinical isolate (Table 3); type: cell-based; conditions: Escherichia coli
Method in brief: (§3)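 Broth microdilution assay; MIC reported in μg/mL as the lowest drug concentration preventing macroscopically visible growth under test conditions.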

[7] = tested on: E. coli ELZ4000; assay: as above; type: cell-based; conditions: Escherichia coli, ELZ4000, read-out: MIC ELZ4000
Method in brief: as §3

[8] = tested on: E. coli 25922; assay: Antibacterial activity, microbroth dilution MIC (Table 1); type: cell-based, Escherichia coli; conditions: Escherichia coli; microbroth dilution; control Gram-negative E. coli 25922 strain; read-out: MIC, 25922
Method in brief: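 Values are MICs (μg/mL): the smallest drug amount at which macroscopically visible bacterial growth is absent under assay conditions, from a microdilution method in broth.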

[9] = tested on: Pseudomonas aeruginosa (P. aeruginosa) 27853; assay: Antibacterial activity, MIC (Table 5); type: cell-based; conditions: P. aeruginosa 27853, read-out: MIC, 27853
Method in brief: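 Activity was measured by microbroth dilution. The MIC, in μg/mL, is the lowest drug concentration that prevents macroscopically visible growth under the test conditions.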

[10] = tested on: Acinetobacter baumannii (A. baumannii) BAA747; assay: Antibacterial activity, MIC (Table 4); type: cell-based; conditions: A. baumannii BAA747, read-out: MIC, BAA747
Method in brief: (§4)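 MIC (μg/mL) by microbroth dilution, taken as the lowest drug concentration preventing macroscopically visible growth. MXX strains are multi-drug resistant clinical isolates.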

[11] = tested on: A. baumannii MXX2240; assay: Antibacterial activity, MIC, resistant strain (Table 4); type: cell-based; conditions: Acinetobacter baumannii, MXX2240; resistant A. baumannii MMX2240, multi-drug resistant clinical isolate; read-out: MIC, MMX2240
Method in brief: as §4

[12] = tested on: K. pneumoniae MXX1232; assay: as above; type: cell-based; conditions: Klebsiella pneumoniae, MXX1232; resistant K. pneumoniae MMX1232, multi-drug resistant clinical isolate; read-out: MIC, MMX1232
Method in brief: as §4

[13] = tested on: Klebsiella pneumoniae (K. pneumoniae) 35657; assay: Antibacterial activity, MIC (Table 4); type: cell-based; conditions: K. pneumoniae 35657, read-out: MIC, 35657
Method in brief: as §4

[14] = tested on: Moraxella catarrhalis (M. catarrhalis) 25238; assay: Antibacterial activity, MIC (Table 7); type: cell-based
Text: as §1, §2

SMILES	MIC [1]	MIC [2]	MIC [3]	MIC [4]	MIC [5]	MIC [6]	MIC [7]	MIC [8]	MIC [9]	MIC [10]	MIC [11]	MIC [12]	MIC [13]	MIC [14]
CCc1c(-c2ccc3c(c2)cc(C)n3C)[nH]c(=O)c(C(=O)O)c1O [Cpd 38, 6-(1,2-dimethyl-1H-indol-5-yl)-5-ethyl-4-hydroxy-2-oxo-1,2-dihydropyridine-3-carboxylic acid]	< 1 µg/mL	12.5 to 150 µg/mL (≈ 38.3 to 460 µM)	1 to 3.5 µg/mL (≈ 3.06 to 10.7 µM)	< 1 µg/mL	< 1 µg/mL	12.5 to 150 µg/mL (≈ 38.3 to 460 µM)	12.5 to 150 µg/mL (≈ 38.3 to 460 µM)	1 to 3.5 µg/mL (≈ 3.06 to 10.7 µM)	–	–	–	–	–	–
CCc1cc(C(=O)O)c(=O)[nH]c1-c1ccc2c(c1)cc(CO)n2C [Cpd 39, 5-ethyl-6-(2-(hydroxymethyl)-1-methyl-1H-indol-5-yl)-2-oxo-1,2-dihydropyridine-3-carboxylic acid]	< 1 µg/mL	12.5 to 150 µg/mL (≈ 38.3 to 460 µM)	3.5 to 12.5 µg/mL (≈ 10.7 to 38.3 µM)	< 1 µg/mL	< 1 µg/mL	12.5 to 150 µg/mL (≈ 38.3 to 460 µM)	12.5 to 150 µg/mL (≈ 38.3 to 460 µM)	1 to 3.5 µg/mL (≈ 3.06 to 10.7 µM)	–	–	–	–	–	–
CCc1c(-c2ccc3c(c2)cc(CO)n3C)[nH]c(=O)c(C(=O)O)c1O [Cpd 40, 5-ethyl-4-hydroxy-6-(2-(hydroxymethyl)-1-methyl-1H-indol-5-yl)-2-oxo-1,2-dihydropyridine-3-carboxylic acid]	< 1 µg/mL	3.5 to 12.5 µg/mL (≈ 10.2 to 36.5 µM)	1 to 3.5 µg/mL (≈ 2.92 to 10.2 µM)	< 1 µg/mL	< 1 µg/mL	3.5 to 12.5 µg/mL (≈ 10.2 to 36.5 µM)	12.5 to 150 µg/mL (≈ 36.5 to 438 µM)	1 to 3.5 µg/mL (≈ 2.92 to 10.2 µM)	3.5 to 12.5 µg/mL (≈ 10.2 to 36.5 µM)	1 to 3.5 µg/mL (≈ 2.92 to 10.2 µM)	3.5 to 12.5 µg/mL (≈ 10.2 to 36.5 µM)	12.5 to 150 µg/mL (≈ 36.5 to 438 µM)	–	–
CCc1cc(C(=O)O)c(=O)[nH]c1-c1ccc2c(cnn2C)c1 [Cpd 41, 5-ethyl-6-(1-methyl-1H-indazol-5-yl)-2-oxo-1,2-dihydropyridine-3-carboxylic acid]	< 1 µg/mL	12.5 to 150 µg/mL (≈ 42 to 505 µM)	12.5 to 150 µg/mL (≈ 42 to 505 µM)	< 1 µg/mL	< 1 µg/mL	12.5 to 150 µg/mL (≈ 42 to 505 µM)	12.5 to 150 µg/mL (≈ 42 to 505 µM)	3.5 to 12.5 µg/mL (≈ 11.8 to 42 µM)	12.5 to 150 µg/mL (≈ 42 to 505 µM)	12.5 to 150 µg/mL (≈ 42 to 505 µM)	12.5 to 150 µg/mL (≈ 42 to 505 µM)	12.5 to 150 µg/mL (≈ 42 to 505 µM)	12.5 to 150 µg/mL (≈ 42 to 505 µM)	–
CCc1c(-c2ccc3c(cnn3C)c2)[nH]c(=O)c(C(=O)O)c1O [Cpd 42, 5-ethyl-4-hydroxy-6-(1-methyl-1H-indazol-5-yl)-2-oxo-1,2-dihydropyridine-3-carboxylic acid]	< 1 µg/mL	1 to 3.5 µg/mL (≈ 3.19 to 11.2 µM)	12.5 to 150 µg/mL (≈ 39.9 to 479 µM)	< 1 µg/mL	< 1 µg/mL	3.5 to 12.5 µg/mL (≈ 11.2 to 39.9 µM)	3.5 to 12.5 µg/mL (≈ 11.2 to 39.9 µM)	3.5 to 12.5 µg/mL (≈ 11.2 to 39.9 µM)	12.5 to 150 µg/mL (≈ 39.9 to 479 µM)	1 to 3.5 µg/mL (≈ 3.19 to 11.2 µM)	3.5 to 12.5 µg/mL (≈ 11.2 to 39.9 µM)	12.5 to 150 µg/mL (≈ 39.9 to 479 µM)	3.5 to 12.5 µg/mL (≈ 11.2 to 39.9 µM)	< 1 µg/mL
CCc1c(-c2ccc3c(c2)cc(CNC)n3C)[nH]c(=O)c(C(=O)O)c1O [Cpd 203, 5-ethyl-4-hydroxy-6-(1-methyl-2-((methylamino)methyl)-1H-indol-5-yl)-2-oxo-1,2-dihydropyridine-3-carboxylic acid]	< 1 µg/mL	1 to 3.5 µg/mL (≈ 2.81 to 9.85 µM)	3.5 to 12.5 µg/mL (≈ 9.85 to 35.2 µM)	< 1 µg/mL	< 1 µg/mL	1 to 3.5 µg/mL (≈ 2.81 to 9.85 µM)	3.5 to 12.5 µg/mL (≈ 9.85 to 35.2 µM)	< 1 µg/mL	1 to 3.5 µg/mL (≈ 2.81 to 9.85 µM)	< 1 µg/mL	3.5 to 12.5 µg/mL (≈ 9.85 to 35.2 µM)	12.5 to 150 µg/mL (≈ 35.2 to 422 µM)	–	< 1 µg/mL
C=CCNCc1cc2cc(-c3[nH]c(=O)c(C(=O)O)c(O)c3CC)ccc2n1C.Cl [Cpd 243, 6-(2-((allylamino)methyl)-1-methyl-1H-indol-5-yl)-5-ethyl-4-hydroxy-2-oxo-1,2-dihydropyridine-3-carboxylic acid hydrochloride]	< 1 µg/mL	1 to 3.5 µg/mL	3.5 to 12.5 µg/mL	< 1 µg/mL	< 1 µg/mL	1 to 3.5 µg/mL	3.5 to 12.5 µg/mL	< 1 µg/mL	3.5 to 12.5 µg/mL	< 1 µg/mL	–	12.5 to 150 µg/mL	< 1 µg/mL	< 1 µg/mL
